Laboratory results reported in publication PMC12657321, “Pre-clinical evaluation of a potent and effective Pin1-degrading agent in pancreatic cancer” (Molecular Therapy Oncology, 2025).
Non-standard residues stand in square brackets, D forms with d. Residues, ends and D or L forms follow the SMILES beside them. *: point of attachment. Trp(6-Cl) = N[C@@H](Cc1c[nH]c2cc(Cl)ccc12)C(=O)O; Pip = O=C(O)[C@@H]1CCCCN1; ClAc = O=C(CCl)*

Assays:
[1] = Wild-type mouse plasma stability; format: in vitro ADME; conditions: 37°C, up to 6 h, acetonitrile quench, LC-MS/MS, values given in min, read-out: Stability half-life, Mouse WT (converted)
Experimental: (§1) A solution of a Pin1 inhibitor was spiked into blank plasma at 1 μg/mL in various solutions, including an aqueous buffer (1× phosphate-buffered saline; Fisher Scientific, Fair Lawn, NJ), human plasma (Innovative Research Inc., Novi, MI), wild-type mouse plasma (Innovative Research Inc., Novi, MI), plasma form esterase-deficient mice (City of Hope, Duarte, CA), and plasma from Black 6-Cg mice (City of Hope, Duarte, CA).
(§2) The spiked plasma samples were incubated at 37°C for up to 6 h. At each designated time point, a 20 μL aliquot of the incubation sample was removed and quenched in 100 μL of acetonitrile. At the end of the incubation, the quenched samples were vortexed and centrifuged for 10 min at 4°C and 20,000 × g. The resulting supernatant was reconstituted and analyzed by LC-MS/MS.
(§3) Table S2. Stability half-life of agents reported in Table 1 after incubation at 37 °C in various media. Acq represents aqueous buffer composed of 1x phosphate buffered saline (Fisher Scientific, Fair Lawn, NJ); human represents human plasma (Innovative Research Inc., Novi, MI); mouse wt represents wild type mouse plasma (Innovative Research Inc., Novi, MI); mouse ES1e represents plasma form esterase deficient mice (City of Hope, Duarte, CA); mouse B6-Cg represents plasma from black 6-Cg mice (City of Hope, Duarte, CA). See Figure 1 for the chemical structures of these compounds.
(§4) Compound Acq Human Mouse Mouse ES1e Mouse

[2] = Stability in aqueous buffer (1x PBS); format: physicochemical; conditions: 1x phosphate buffered saline, 1 μg/mL, 37°C, up to 6 h, acetonitrile quench, LC-MS/MS
Experimental: as §1, §2, §3, §4

[3] = Stability in plasma from esterase-deficient (ES1e) mice; format: in vitro ADME; conditions: mouse, 37°C, up to 6 h, acetonitrile quench, LC-MS/MS
Experimental: as §1, §2, §3, §4

[4] = Stability in plasma from Black 6-Cg mice; format: in vitro ADME; conditions: Black 6-Cg (B6-Cg), mouse, 37°C, up to 6 h, acetonitrile quench, LC-MS/MS
Experimental: as §1, §2, §3, §4

[5] = Human plasma stability; format: in vitro ADME; conditions: 37°C, up to 6 h, acetonitrile quench, LC-MS/MS
Experimental: as §1, §2, §3, §4

In the case of `NC(=O)[C@H](Cc1c[nH]c2ccccc12)NC(=O)[C@@H]1CCCCN1C(=O)[C@H](Cc1c[nH]c2cc(Cl)ccc12)NC(=O)CCl` [158H9] (ClAc-[Trp(6-Cl)]-[Pip]-Trp-NH2), the half-life at 1 μg/mL [1] is reported as roughly 0.5 h, the “Stability half-life, Acq (aqueous buffer)” value [2] is reported as greater than 5 h and the half-life at 1 μg/mL [3] is reported as greater than 5 h. For the same molecule, the half-life at 1 μg/mL [4] was greater than 5 h and the half-life at 1 μg/mL [5] was roughly 3 h.

For `NC(=O)[C@H](Cc1c[nH]c2ccc(F)cc12)NC(=O)[C@@H]1CCCCN1C(=O)[C@@H]1Cc2c([nH]c3ccccc23)CN1C(=O)CCl` [164A10], the half-life at 1 μg/mL [1] was less than 0.167 h, the “Stability half-life, Acq (aqueous buffer)” value [2] was greater than 5 h and the half-life at 1 μg/mL [3] was roughly 2.5 h. The half-life at 1 μg/mL [4] was roughly 2.5 h and the half-life at 1 μg/mL [5] was roughly 2.5 h.
